Structures can show the parent of a compound that is named as a salt. Where two headings read alike, the source gives them in different places.
Key:
Assay type in all cases: cell-based, human
MYB mRNA = assay: Splicing RT-qPCR assay, MYB canonical (CJ) and alternative (AJ) junction mRNA; details: for IC50: canonical junction mRNA; for AC50: alternative junction mRNA, read-out: MYB AJ (AC50, increase in AJ mRNA)
Method in brief: (§1)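 Splicing switches are scored by TaqMan qPCR on cell lysate, comparing abundance of the normal exon junction with the new junction formed when the alternative exon is included. A673 results are referenced to PPIA and K562 results to GAPDH or GUSB. Compound exposure lasts 24 h.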

HiBiT-tagged HTT protein = assay: HiBiT protein abundance assay, HTT (K562 HiBiT knock-in); details: HiBiT knock-in cells, 24 hours
Method in brief: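 Endogenously HiBiT-tagged K562 knock-in lines treated 24 h at 37 °C with 10-point 3-fold dilutions (top 10 μM final, DMSO ≤0.25%) in IMDM+1% FBS. Lytic Nano-Glo luminescence normalized to DMSO and unmodified K562 controls; four-parameter fit gives 50%-abundance concentration (IC50).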

HTT mRNA = assay: Splicing RT-qPCR assay, HTT canonical (CJ) and alternative (AJ) junction mRNA; details: for IC50: canonical junction mRNA; for AC50: alternative junction mRNA, read-out: HTT AJ (AC50, increase in AJ mRNA)
Method in brief: as §1

[1] = Homo sapiens, qPCR panel, read-out: MYB CJ (decrease in CJ mRNA levels, IC50)
[2] = Homo sapiens, RT-qPCR, A673 or K562 cells, 24 hours treatment
[3] = Homo sapiens, RT-qPCR, A673 or K562 cells, 24 hours treatment, read-out: MYB CJ (IC50, decrease in CJ mRNA)
[4] = Homo sapiens, 24 h, RT-qPCR, A673 or K562 cells, 24 hours treatment, read-out: HTT CJ (IC50, decrease in CJ mRNA)
[5] = Homo sapiens, qPCR panel, read-out: HTT CJ (decrease in CJ mRNA levels, IC50)
[6] = RT-qPCR, A673 or K562 cells, 24 hours treatment

| Compound | IC50 (MYB mRNA; [1]) [nM] | IC50 (MYB mRNA; [3]) [nM] | IC50 (HiBiT-tagged HTT protein) [nM] | IC50 (HTT mRNA; [4]) [nM] | IC50 (HTT mRNA; [5]) [nM] | IC50 (MYB mRNA; RT-qPCR, A673 or K562 cells, 24 hours treatment, read-out: MYB CJ (IC50, decrease in CJ mRNA)) [nM] | IC50 (MYB mRNA; qPCR panel, read-out: MYB CJ (decrease in CJ mRNA levels, IC50)) [nM] | IC50 (HTT mRNA; RT-qPCR, A673 or K562 cells, 24 hours treatment, read-out: HTT CJ (IC50, decrease in CJ mRNA)) [nM] | IC50 (HTT mRNA; qPCR panel, read-out: HTT CJ (decrease in CJ mRNA levels, IC50)) [nM] | AC50 (MYB mRNA; [2]) [nM] | AC50 (HTT mRNA; [2]) [nM] | AC50 (MYB mRNA; [6]) [nM] | AC50 (HTT mRNA; [6]) [nM] |
| --- | --- | --- | --- | --- | --- | --- | --- | --- | --- | --- | --- | --- | --- |
| COc1nc(-c2cc3cn(C)nc3c(F)c2O)nc2ncc(N3CCC(N(C)C)CC3)cc12 [Compound 219, 5-{6-[4-(dimethylamino)piperidin-1-yl]-4-methoxypyrido[2,3-d]pyrimidin-2-yl}-7-fluoro-2-methylindazol-6-ol] | < 100 | < 100 | < 100 | < 100 | < 100 |  |  |  |  | < 100 | 100 to 1000 |  |  |
| Cn1cc2cc(-c3cnc4nc(N5CCC(NC6CC6)C5)ccc4n3)c(O)c(F)c2n1 (stereo not drawn) [Compound 178, 5-[6-[3-(cyclopropylamino)pyrrolidin-1-yl]pyrido[2,3-b]pyrazin-2-yl]-7-fluoro-2-methyl-indazol-6-ol] | < 100 | < 100 | 100 to 1000 | < 100 | < 100 |  |  |  |  | 100 to 1000 | 100 to 1000 |  |  |
| C[C@@H]1CN(c2cnc3nc(-c4cc5cn(C)nc5c(F)c4O)cc(C#N)c3c2)C[C@H](C)N1 [Compound 266, 6-[(3R,5S)-3,5-dimethylpiperazin-1-yl]-2-(7-fluoro-6-hydroxy-2-methylindazol-5-yl)-1,8-naphthyridine-4-carbonitrile hydrochloride] | < 100 | < 100 | 100 to 1000 | 100 to 1000 | 100 to 1000 |  |  |  |  | 100 to 1000 | 1000 to 10000 |  |  |
| C[C@@H]1CN(c2cnc3nc(-c4cc5cn(C)nc5cc4O)cc(Cl)c3c2)C[C@@H](C)N1 [Compound 243, 5-{4-chloro-6-[(3R,5R)-3,5-dimethylpiperazin-1-yl]-1,8-naphthyridin-2-yl}-2-methylindazol-6-ol hydrochloride] | 100 to 1000 | 100 to 1000 | 100 to 1000 | 1000 to 10000 | 1000 to 10000 |  |  |  |  | 100 to 1000 | 1000 to 10000 |  |  |
| C[C@@H]1CN(c2cnc3nc(-c4cc5cn(C)nc5c(F)c4O)ccc3c2)C[C@H](C)N1 [Compound 206] | < 100 | < 100 | < 100 | < 100 | < 100 |  |  |  |  | < 100 | 100 to 1000 |  |  |
| Cn1cc2cc(-c3cc(Cl)c4cc(N5CCNCC5)cnc4n3)c(O)cc2n1 [Compound 102, 5-[4-chloro-6-(piperazin-1-yl)-1,8-naphthyridin-2-yl]-2-methylindazol-6-ol] | < 100 | < 100 | 100 to 1000 | 100 to 1000 | 100 to 1000 |  |  |  |  | < 100 | 100 to 1000 |  |  |
| C[C@@H]1CN(c2cnc3nc(-c4cc(F)c5nn(C)cc5c4)cc(Cl)c3c2)C[C@H](C)N1 [Compound 215] | 100 to 1000 | 100 to 1000 | 1000 to 10000 | 1000 to 10000 | 1000 to 10000 |  |  |  |  | 100 to 1000 | 1000 to 10000 |  |  |
| Cn1cc2cc(-c3cc(Cl)c4cc(N5CCNC(C6CC6)C5)cnc4n3)cc(F)c2n1 (stereo not drawn) [Compound 209, 4-chloro-6-(3-cyclopropylpiperazin-1-yl)-2-(7-fluoro-2-methylindazol-5-yl)-1,8-naphthyridine] | 100 to 1000 | 100 to 1000 | 100 to 1000 | 1000 to 10000 | 1000 to 10000 |  |  |  |  | 100 to 1000 | 1000 to 10000 |  |  |
| CNC1CCN(c2cnc3nc(-c4cc5cn(C)nc5cc4O)cc(Cl)c3c2)C1 (stereo not drawn) [Compound 213, 5-{4-chloro-6-[3-(methylamino)370pyrrolidine-1-yl]-1,8-naphthyridin-2-yl}-2-methylindazol-6-ol] | < 100 | < 100 | 100 to 1000 | 100 to 1000 | 100 to 1000 |  |  |  |  | < 100 | 100 to 1000 |  |  |
| CNC1CCN(c2cnc3nc(-c4cc5cn(C)nc5c(C)c4O)nc(OC)c3c2)C1 (stereo not drawn) [Compound 161, 5-{4-methoxy-6-[3-(methylamino)pyrrolidin-1-yl]pyrido[2,3-d]pyrimidin-2-yl}-2,7-dimethylindazol-6-ol] | < 100 | < 100 | 100 to 1000 | 100 to 1000 | 100 to 1000 |  |  |  |  | < 100 | 100 to 1000 |  |  |
| Cc1c(O)c(-c2ncc3cc(N4CC[C@H](N)C4)cnc3n2)cc2cn(C)nc12 [Compound 160, (S)-5-(6-(3-aminopyrrolidin-1-yl)pyrido[2,3-d]pyrimidin-2-yl)-2,7-dimethyl-2H-indazol-6-ol 2,2,2-trifluoroacetate] | < 100 | < 100 | < 100 | 100 to 1000 | 100 to 1000 |  |  |  |  | < 100 | 100 to 1000 |  |  |
| Cc1c(O)c(-c2ccc3nc(N4CCC(N(C)C)CC4)cnc3n2)cc2cn(C)nc12 [Compound 198] | < 100 | 100 to 1000 | 1000 to 10000 | 1000 to 10000 | < 100 |  |  |  |  | 100 to 1000 | > 10000 |  |  |
| CN(C)[C@H]1CCN(c2cnc3nc(-c4cc5cn(C)nc5c(F)c4O)cc(Cl)c3c2)C1 [Compound 221] | < 100 | < 100 | < 100 | < 100 | < 100 |  |  |  |  | < 100 | 100 to 1000 |  |  |

Further lines, with some results ahead:

| IC50 (MYB mRNA; [1]) [nM] | IC50 (MYB mRNA; [3]) [nM] | IC50 (HiBiT-tagged HTT protein) [nM] | IC50 (HTT mRNA; [4]) [nM] | IC50 (HTT mRNA; [5]) [nM] | IC50 (MYB mRNA; RT-qPCR, A673 or K562 cells, 24 hours treatment, read-out: MYB CJ (IC50, decrease in CJ mRNA)) [nM] | IC50 (MYB mRNA; qPCR panel, read-out: MYB CJ (decrease in CJ mRNA levels, IC50)) [nM] | IC50 (HTT mRNA; RT-qPCR, A673 or K562 cells, 24 hours treatment, read-out: HTT CJ (IC50, decrease in CJ mRNA)) [nM] | IC50 (HTT mRNA; qPCR panel, read-out: HTT CJ (decrease in CJ mRNA levels, IC50)) [nM] | Compound | AC50 (MYB mRNA; [2]) [nM] | AC50 (HTT mRNA; [2]) [nM] | AC50 (MYB mRNA; [6]) [nM] | AC50 (HTT mRNA; [6]) [nM] |
| --- | --- | --- | --- | --- | --- | --- | --- | --- | --- | --- | --- | --- | --- |
| 1000 to 10000 | 1000 to 10000 | 1000 to 10000 | 1000 to 10000 | 1000 to 10000 |  |  |  |  | Cc1cn2nc(-c3ccc4cc(NC5CCNCC5)cnc4n3)cc(C)c2n1 [Compound 210, 7-{2,8-dimethylimidazo[1,2-b]pyridazin-6-yl}-N-(piperidin-4-yl)-1,8-naphthyridin-3-amine; trifluoroacetic acid] | 1000 to 10000 | 1000 to 10000 |  |  |
| < 100 | < 100 | < 100 | < 100 | < 100 |  |  |  |  | CN(C)[C@@H]1CCN(c2cnc3nc(-c4cc5cn(C)nc5c(F)c4O)cc(Cl)c3c2)C1 [Compound 220] | < 100 | 100 to 1000 |  |  |
| < 100 | < 100 | 100 to 1000 | 100 to 1000 | 100 to 1000 |  |  |  |  | C[C@H]1CN(c2cnc3nc(-c4cc5cn(C)nc5cc4O)cc(Cl)c3c2)C[C@H](C)N1 [Compound 242] | < 100 | 100 to 1000 |  |  |
| 100 to 1000 | 100 to 1000 | 100 to 1000 | 100 to 1000 | 100 to 1000 |  |  |  |  | CNC1CCN(c2cnc3nc(-c4cc5cn(C)nc5c(C)c4O)ccc3n2)C1 (stereo not drawn) [Compound 192, 2,7-dimethyl-5-{2-[3-(methylamino)337pyrrolidine-1-yl]pyrido[2,3-b]pyrazin-6-yl}indazol-6-ol] | 100 to 1000 | 100 to 1000 |  |  |
| < 100 | < 100 | 100 to 1000 | 100 to 1000 | 100 to 1000 |  |  |  |  | Cn1cc2cc(-c3cc(Cl)c4cc(N5CCNCC5)cnc4n3)cc(F)c2n1 [Compound 103] | < 100 | 1000 to 10000 |  |  |
| < 100 | < 100 | 100 to 1000 | 100 to 1000 | 100 to 1000 |  |  |  |  | COc1nc(-c2cc3cn(C)nc3c(C)c2O)nc2ncc(N3CCNCC3)cc12 [Compound 162, 5-[4-methoxy-6-(piperazin-1-yl)pyrido[2,3-d]pyrimidin-2-yl]-2,7-dimethylindazol-6-ol] | < 100 | 100 to 1000 |  |  |
|  |  | < 100 |  |  | < 100 | < 100 | < 100 | < 100 | Cc1c(O)c(-c2cc(Cl)c3cc(N4C[C@@H](C)N[C@@H](C)C4)cnc3n2)cc2cn(C)nc12 [Compound 207, 5-{4-chloro-6-[(3R,5S)-3,5-dimethylpiperazin-1-yl]-1,8-naphthyridin-2-yl}-2,7-dimethylindazol-6-ol] |  |  | < 100 | 100 to 1000 |
| 100 to 1000 | 100 to 1000 | 100 to 1000 | 100 to 1000 | 100 to 1000 |  |  |  |  | Cc1c(O)c(-c2ccc3nc(N4CCNCC4)cnc3n2)cc2cn(C)nc12 [Compound 197, 2,7-dimethyl-5-[2-(piperazin-1-yl)pyrido[2,3-b]pyrazin-6-yl]indazol-6-ol] | 100 to 1000 | 100 to 1000 |  |  |

From patent publication US20250326748A1, “COMPOUNDS AND METHODS FOR MODULATING SPLICING” (REMIX THERAPEUTICS INC., priority 2022, published 2025)
